Experimental data as given in patent publication US7691842B2, “Tricyclic 6-alkylidene-penems as β-lactamase inhibitors” (Wyeth LLC, priority 2002, dated 2010).
pIC50: −log10 of the molar value. Read-outs that look alike come from different tables or passages of the source.

How the values were obtained:
[1] = molecular target: class A β-lactamase TEM-1 (Escherichia coli, UniProt P62593); assay: β-Lactamase inhibition, IC50 determination (nitrocefin, spectrophotometric); assay type: biochemical, E. Coli; conditions: for IC50: enzyme 4.3 nM, 10 min preincubation at 25° C., nitrocefin 50 μg/ml, 50 mM PO4, pH 7.0, read-out: IC50 (nM) Class A TEM-1
class A β-lactamase TEM-1, sequence (P62593 24-286 limits assumed): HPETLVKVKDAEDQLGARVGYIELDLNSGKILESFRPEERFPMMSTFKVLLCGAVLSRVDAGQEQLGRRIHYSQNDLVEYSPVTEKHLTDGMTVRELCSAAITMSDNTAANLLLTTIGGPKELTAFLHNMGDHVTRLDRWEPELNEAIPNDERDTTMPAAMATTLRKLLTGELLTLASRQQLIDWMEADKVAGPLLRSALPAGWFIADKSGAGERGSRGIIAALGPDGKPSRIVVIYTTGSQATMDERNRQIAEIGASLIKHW
Method in brief: (§1)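 Purified enzymes TEM-1 (4.3 nM), Imi-1 (7.1 nM), CcrA (1.2 nM) and AmpC (2.1 nM) were preincubated with inhibitor 10 min at 25 °C in 50 mM PO4, pH 7.0. Nitrocefin (50 μg/ml) hydrolysis rates at 495 nm over 5 min gave % inhibition versus control; IC50 determined graphically.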

[2] = molecular target: class A β-lactamase Imi-1 (Enterobacter cloacae, UniProt Q46991); assay: as above; assay type: biochemical; conditions: for IC50: enzyme 7.1 nM, 10 min preincubation at 25° C., nitrocefin 50 μg/ml, 50 mM PO4, pH 7.0, read-out: IC50 (nM) Class A Imi
class A β-lactamase Imi-1, sequence (Q46991 entry or part of it): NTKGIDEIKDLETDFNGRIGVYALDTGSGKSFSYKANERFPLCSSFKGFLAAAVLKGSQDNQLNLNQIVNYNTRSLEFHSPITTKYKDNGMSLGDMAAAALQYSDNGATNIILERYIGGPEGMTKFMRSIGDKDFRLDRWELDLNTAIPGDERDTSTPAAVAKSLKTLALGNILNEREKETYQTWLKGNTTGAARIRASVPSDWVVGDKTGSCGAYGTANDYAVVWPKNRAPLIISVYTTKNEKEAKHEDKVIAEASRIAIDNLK

[3] = molecular target: class B enzyme CcrA (Bacteroides fragilis, UniProt P25910); assay: as above; assay type: biochemical; conditions: enzyme 1.2 nM; 10 min preincubation at 25° C.; nitrocefin 50 μg/ml; 50 mM PO4, pH 7.0; read-out: IC50 (nM) Class B Ccr
class B enzyme CcrA, sequence (P25910 19-249): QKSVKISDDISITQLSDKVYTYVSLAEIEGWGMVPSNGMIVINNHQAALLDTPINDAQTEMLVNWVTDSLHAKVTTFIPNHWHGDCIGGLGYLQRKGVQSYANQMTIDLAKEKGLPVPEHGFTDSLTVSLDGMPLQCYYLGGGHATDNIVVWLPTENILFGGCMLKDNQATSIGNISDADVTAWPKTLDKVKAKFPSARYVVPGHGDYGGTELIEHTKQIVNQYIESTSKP
Method in brief: as §1

[4] = molecular target: class C enzyme AmpC (Enterobacter cloacae, UniProt P05364); assay: biochemical; design: species or system Enterobacter cloaca; conditions: for IC50: enzyme 2.1 nM, 10 min preincubation at 25° C., nitrocefin 50 μg/ml, 50 mM PO4, pH 7.0, read-out: IC50 (nM) Class C AmpC
class C enzyme AmpC, sequence (P05364 21-381): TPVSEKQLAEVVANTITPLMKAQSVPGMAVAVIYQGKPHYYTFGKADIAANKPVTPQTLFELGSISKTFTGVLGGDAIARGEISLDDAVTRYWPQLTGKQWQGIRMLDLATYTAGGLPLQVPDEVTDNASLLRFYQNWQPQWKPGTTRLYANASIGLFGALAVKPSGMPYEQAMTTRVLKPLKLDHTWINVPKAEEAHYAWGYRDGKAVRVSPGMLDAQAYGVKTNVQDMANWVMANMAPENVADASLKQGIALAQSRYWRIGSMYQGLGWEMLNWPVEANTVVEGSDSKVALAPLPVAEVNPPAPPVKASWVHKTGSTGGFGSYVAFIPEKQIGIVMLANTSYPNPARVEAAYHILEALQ
Method in brief: as §1

[5] = tested on: E. Cloacae GC1477 (Ampc); assay: Antimicrobial susceptibility testing, microbroth dilution MIC of piperacillin + inhibitor; assay type: cell-based; conditions: piperacillin combined with constant 4 μg/ml inhibitor; Inc: 35° C. for 18 hours
Method in brief: (§2)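 Piperacillin two-fold dilution series + 4 μg/ml inhibitor (final), MHBII, 10^5 CFU/ml, 35° C, 18-22 h, ambient air; NCCLS microdilution.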

[6] = tested on: E. Coli GC2203; assay: as above; assay type: cell-based; conditions: piperacillin combined with constant 4 μg/ml inhibitor; Inc: 35° C. for 18 hours
Method in brief: as §2

[7] = tested on: E. Coli GC2844; assay: as above; assay type: cell-based; conditions: piperacillin combined with constant 4 μg/ml inhibitor; Inc: 35° C. for 18 hours
Method in brief: as §2

[8] = tested on: E. Coli GC2847 (TEM-1); assay: as above; assay type: cell-based; conditions: piperacillin combined with constant 4 μg/ml inhibitor; Inc: 35° C. for 18 hours
Method in brief: as §2

[9] = tested on: E. Coli GC2894 (Ampc); assay: as above; assay type: cell-based; conditions: piperacillin combined with constant 4 μg/ml inhibitor; Inc: 35° C. for 18 hours
Method in brief: as §2

[10] = tested on: E. Coli GC2920 (IRT-2); assay: as above; assay type: cell-based; conditions: piperacillin combined with constant 4 μg/ml inhibitor; Inc: 35° C. for 18 hours
Method in brief: as §2

[11] = tested on: P. aeruginos GC1764 (Ampc); assay: as above; assay type: cell-based; conditions: piperacillin combined with constant 4 μg/ml inhibitor; Inc: 35° C. for 18 hours
Method in brief: as §2

[12] = tested on: S. Marcescens GC1781 Sme-1 + Ampc; assay: as above; assay type: cell-based; conditions: piperacillin combined with constant 4 μg/ml inhibitor; Inc: 35° C. for 18 hours
Method in brief: as §2

[13] = tested on: S. aureus GC2216; assay: as above; assay type: cell-based; conditions: piperacillin combined with constant 4 μg/ml inhibitor; Inc: 35° C. for 18 hours
Method in brief: as §2

[14] = tested on: Clinical isolates that have been adapted to cause infection in mice; assay: In vivo antibacterial protection (7 day survival of infected mice, ED50); design: species or system mice strain CD-1
Source text: In Vivo Antibacterial Protection
Female mice strain CD-1, approximately 18-22 grams, were received from Charles River Laboratories and quarantined 7 days prior to use. In addition, mice may be rendered neutropenic using cytoxan for particular studies.
Clinical isolates that have been adapted to cause infection in mice, are used in the experiment, including infections with strains of E. coli, K. pneumoniae, M. morganii, E. cloacae, S. marcescens, C. freundii, staphylococci, streptococci, P. aeruginosa and N. gonorrhoeae.
Mice are challenged by injecting 0.5 ml intraperitoneally or 0.05 ml intranasally of a predetermined bacterial inoculum suspended in broth, saline or hog gastric mucin (supplemented with dried bovine hemoglobin for N. gonorrhoeae). […] Antibacterial doses (dose concentration prepared by two fold serial dilutions of the antibiotic) are dissolved or suspended in 0.2% aqueous agar or methocel, phosphate buffered saline or an adjuvant are administered orally, subcutaneously or intravenously in the following manner: • a) Orally or subcutaneously: Dose volume of 0.5 ml administered ½ hr after infection. A second dose may be administered 3 hr. after infection for treatment of infections with more virulent organisms. • b) Intravenously: Dose volume of 0.2 ml, administered ½ hr. after infection. For the treatment of infections with more virulent organisms, more doses, up to 48 hr may be administered. (Intravenous dosing will not exceed 3 doses/24 hr period.) • c) Oral pretreatment: Under special circumstances, the pH of the stomach needs to be adjusted in order to increase the gastric stability of the antibiotic. For this purpose, 0.5 ml of phosphate buffered saline (pH7.8, 0.06M) (or specific approved adjuvant) is administered orally ½ hr after infection, followed 5 minutes later by 0.5 ml of antibiotic (also orally) contained in phosphate buffered saline (pH7.8, 0.06M). Animal Species
A detailed explanation as to the number of animals needed for the determination of in vivo efficacy follows: • A) Novel antibiotics are tested at 5 different dose levels with 5 mice per dose level at each of three routes of administration (oral, subcutaneous and intravenous). […] This would require 25 mice/route with 3 routes/antibiotic or 75 mice per novel compound tested. One to two novel antibiotics will be tested per experiment (75-150 mice) • B) The effectiveness of the new compound must be compared to that of a standard, or antibiotic of known effectiveness. Known or previously tested antibiotics are tested at 5 dose levels with 5 mice per dose level by a single route of administration, for a total of 25 mice/antibiotic. Usually 3-6 antibiotics will be tested per experiment. (75-150 mice). • C) Untreated controls—In each of the above tests, untreated animals are infected with 3 different concentrations of bacterial inoculum with 10 mice per concentration (30 mice total in each and every test). These untreated controls are used to determine and maintain the infection level between 10-100 LD50s as required for test to test comparison and validity. Determination of Protective Effects of Antibacterial Agents:
The protective effects of the antibacterial agent(s) are measured by the survival of the infected untreated as compared to the treated animals. For this determination, animals are observed for 7 days after treatment. A census of survivors is taken twice daily and at that time dead as well as moribund animals are removed. The 7 day survival ratio from three separate tests are pooled for estimation of median effective dose (ED50) by computerized program for probit analysis (Cleeland, R. and E. Squires. 1991. Evaluation of New Antimicrobials in Vitro and in Experimental Animal Infections. In Antibiotics in Laboratory Medicine”, 3rd. ed., edited by Victor Lorian. Willams and Wilkins Baltimore, Md. pp. 752-783). […]

[15] = Ratio of Piperacillin Inhibitor not given

Row | SMILES | IC50 [1] [nM] | IC50 [2] [nM] | IC50 [3] [nM] | IC50 [4] [nM] | Minimal Inhibitory Concentration E. Cloacae GC1477 (Ampc) [5] [µg/mL] | Minimal Inhibitory Concentration E. Coli GC2203 [6] [µg/mL] | Minimal Inhibitory Concentration E. Coli GC2844 [7] [µg/mL] | Minimal Inhibitory Concentration E. Coli GC2847 (TEM-1) [8] [µg/mL] | Minimal Inhibitory Concentration E. Coli GC2894 (Ampc) [9] [µg/mL] | Minimal Inhibitory Concentration E. Coli GC2920 (IRT-2) [10] [µg/mL] | Minimal Inhibitory Concentration P. aeruginos GC1764 (Ampc) [11] [µg/mL] | Minimal Inhibitory Concentration S. Marcescens GC1781 Sme-1 + Ampc [12] [µg/mL] | Minimal Inhibitory Concentration S. aureus GC2216 [13] | ED50 ([14]; Ratio of Piperacillin Inhibitor 4:1) [mg/kg] | ED50 [14, 15] [mg/kg] | melting point | pIC50 [1] | pIC50 [2] | pIC50 [4]
1 | Cc1ccc2c(c1)sc1nc(/C=C3/C(=O)N4C(C(=O)O)=CS[C@H]34)cn12 [Example 7] | 2.6 | 106 | 103 | 1.1 | 32 | 1 | 2 | 4 | 4 | 2 | 16 | 0.5 | <0.06 µg/mL | 137 | – | – | – | – | –
2 | O=C(O)C1=CS[C@@H]2/C(=C\c3cn4c5c(sc4n3)COCC5)C(=O)N12 [Example 15, (5R),(6Z)-6-(5,8-dihydro-6H-imidazo[2,1-b]pyrano[4,3-d][1,3]thiazol-2-ylmethylene)-7-oxo-4-thia-1-azabicyclo[3.2.0]hept-2-ene-2-carboxylic acid] | 2.8 | 100 | 200 | 1.5 | 16 | 2 | 2 | 4 | 2 | 2 | 4 | 1 | 0.05 µg/mL | – | 25 | – | – | – | –
3 | O=C(O)C1=CS[C@@H]2/C(=C\c3cn4c5c(sc4n3)CCCC5)C(=O)N12 [Example 19, (5R),(6Z)-7-oxo-6-(5,6,7,8-tetrahydroimidazo[2,1-b][1,3]benzothiazol-2-ylmethylene)-4-thia-1-azabicyclo[3.2.0]hept-2-ene-2-carboxylic acid] | 1.9 | 33 | 215 | 0.62 | 32 | 2 | 2 | 8 | 4 | 2 | 1 | 8 | .06 µg/mL | – | 63 | – | – | – | –
4 | Cc1nc2nc(/C=C3/C(=O)N4C(C(=O)[O-])=CS[C@H]34)nn2c2c1CCC2.[Na+] [Example 22, (5R,6Z)-6-[(5-methyl-7,8-dihydro-6H-cyclopenta[e][1,2,4]triazolo[1,5-a]pyrimidin-2-yl)methylene]-7-oxo-4-thia-1-azabicyclo[3.2.0]hept-2-ene-2-carboxylic acid, sodium salt] | – | – | – | – | – | – | – | – | – | – | – | – | – | – | – | 250 °C (dec.) | – | – | –
5 | O=C([O-])C1=CS[C@@H]2/C(=C\c3nc4ncc5c(n4n3)CCC3(C5)OCCO3)C(=O)N12.[Na+] [Example 24, (5R,6Z)-6-(8′,9′-dihydro-6′H-spiro[1,3-dioxolane-2,7′-[1,2,4]triazolo[1,5-a]quinazolin]-2′-ylmethylene)-7-oxo-4-thia-1-azabicyclo[3.2.0]hept-2-ene-2-carboxylic acid, sodium salt] | – | – | – | – | – | – | – | – | – | – | – | – | – | – | – | > 250 °C (dec.) | – | – | –
6 | Cc1nc2nc(/C=C3/C(=O)N4C(C(=O)[O-])=CS[C@H]34)nn2c2c1CCCC2.[Na+] [Example 25, (5R,6Z)-6-[(5-methyl-6,7,8,9-tetrahydro[1,2,4]triazolo[1,5-a]quinazolin-2-yl)methylene]-7-oxo-4-thia-1-azabicyclo[3.2.0]hept-2-ene-2-carboxylic acid, sodium salt] | – | – | – | – | – | – | – | – | – | – | – | – | – | – | – | 250 °C (dec.) | – | – | –
7 | O=C([O-])C1=CS[C@@H]2/C(=C\c3cn4c5c(c(OCCOCc6ccccc6)nc4n3)CCC5)C(=O)N12.[Na+] [Example 27, (5R,6Z)-6-(5-[2-(benzyloxy)ethoxy]-7,8-dihydro-6H-cyclopenta[e]imidazo[1,2-a]pyrimidin-2-ylmethylene)-7-oxo-4-thia-1-azabicyclo[3.2.0]hept-2-ene-2-carboxylic acid, sodium salt] | – | – | 180 | – | – | – | – | – | – | – | – | – | – | – | – | > 250 °C | 7.92 | 7.48 | 8.52
8 | O=C([O-])C1=CS[C@@H]2/C(=C\c3ccc4nc5n(c4c3)CCS5)C(=O)N12.[Na+] [Example 28, (5R,6Z)-6-(2,3-dihydro[1,3]thiazolo[3,2-a]benzimidazol-6-ylmethylene)-7-oxo-4-thia-1-azabicyclo[3.2.0]hept-2-ene-2-carboxylic acid, sodium salt] | – | – | 110 | – | – | – | – | – | – | – | – | – | – | – | – | > 250 °C | 8.49 | 7.05 | 8.24
